Patent publication US20110105474A1, “HETEROCYCLIC DERIVATIVES AS HDAC INHIBITORS” (DAC S.r.l., priority 2008, published 2011)
Where a name gives a salt, the structure may show the parent alone.

Columns and labels:
Format in all cases: cell-based
HCT-116 cells = assay: Cell growth, CellTiter-Glo Luminescent Cell Viability Assay, HCT-116; conditions: Homo sapiens, 72 h incubation, read-out: IC50 HCT116
From the text: (§1) CellTiter-Glo® Luminescent Cell Viability Assay (Promega) is a homogeneous method of determining the number of viable cells in culture based on quantitation of the present ATP, which indicates the presence of metabolically active cells. The homogeneous assay procedure involves addition of a single reagent (CellTiter-Glo®Reagent) directly to the cells, which leads to cell lysis and generation of a luminescent signal proportional to the amount of the ATP and the number of cells present in culture. The assay relies on the properties of a proprietary thermostable luciferase (Ultra-Glo® recombinant luciferase), which generates a luminescent signal.
(§2) K562, A549 and HCT-116 cells, in exponential growth, were incubated for 72 h with different concentrations of the inhibitors. After 72 h, a volume of CellTiter-Glo® Reagent equal to the volume of cell culture medium was added. The content was mixed for 2 min to induce cell lysis. The luminescence was recorded after further 10 min at RT in order to obtain a stabilized luminescent signal.
(§3) The IC50 was calculated using GraphPad Software.
(§4) IC50 results were allocated to one of 3 ranges as follows: Range A: IC50≦1.0 μM; Range B: from 1.0 to 3.0 μM; Range C: IC50≧3.0 μM.

A549 cells = assay: Cell growth, CellTiter-Glo Luminescent Cell Viability Assay, A549; conditions: Homo sapiens, 72 h incubation
From the text: as §1, §2, §3, §4

K562 cells = assay: Cell growth, CellTiter-Glo Luminescent Cell Viability Assay, K562; conditions: Homo sapiens, 72 h incubation
From the text: as §1, §2, §3, §4

## O=C(/C=C/c1cccc(/C=C/C(=O)N2CCCC(c3ccc(F)cc3)C2)c1)NO (racemic) [Example 84, (±)-(E)-3-(3-{(E)-3-[3-(4-Fluoro-phenyl)-piperidin-1-yl]-3-oxo-propenyl}-phenyl)-N-hydroxy-acrylamide]
HCT-116 cells
  IC50: ≥ 3000 nM
A549 cells
  IC50: ≥ 3000 nM
K562 cells
  IC50: ≥ 3000 nM

## O=C(/C=C/c1cccc(/C=C/C(=O)N2CCN(c3ccccc3)CC2)c1)NO [Example 3, (E)-N-Hydroxy-3-{3-[(E)-3-oxo-3-(4-phenyl-piperazin-1-yl)-propenyl]-phenyl}-acrylamide]
HCT-116 cells
  IC50: ≤ 1000 nM
A549 cells
  IC50: 1000 to 3000 nM
K562 cells
  IC50: ≤ 1000 nM

## O=C(/C=C/c1ccc(/C=C/C(=O)N2CCN(c3ccccc3)CC2)cc1)NO [Example 7, (E)-N-Hydroxy-3-{4-[(E)-3-oxo-3-(4-phenyl-piperazin-1-yl)-propenyl]-phenyl}-acrylamide]
HCT-116 cells
  IC50: ≥ 3000 nM
A549 cells
  IC50: ≥ 3000 nM
K562 cells
  IC50: ≥ 3000 nM

## O=C(/C=C/c1ccc(/C=C/C(=O)N2CCN(c3ccccc3)CC2)cn1)NO [Example 11, (E)-N-Hydroxy-3-{5-[(E)-3-oxo-3-(4-phenyl-piperazin-1-yl)-propenyl]-pyridin-2-yl}-acrylamide]
HCT-116 cells
  IC50: 1000 to 3000 nM
A549 cells
  IC50: ≥ 3000 nM
K562 cells
  IC50: 1000 to 3000 nM

## O=C(/C=C/c1cccc(/C=C/C(=O)N2CCN(c3ccccc3)CC2)n1)NO [Example 13, (E)-N-Hydroxy-3-{6-[(E)-3-oxo-3-(4-phenyl-piperazin-1-yl)-propenyl]-pyridin-2-yl}-acrylamide]
HCT-116 cells
  IC50: 1000 to 3000 nM
A549 cells
  IC50: 1000 to 3000 nM
K562 cells
  IC50: 1000 to 3000 nM

## O=C(/C=C/c1cccc(/C=C/C(=O)N2CCN(c3cccc(Cl)c3)CC2)n1)NO [Example 15, (E)-3-(6-{(E)-3-[4-(3-Chloro-phenyl)-piperazin-1-yl]-3-oxo-propenyl}-pyridin-2-yl)-N-hydroxy-acrylamide]
HCT-116 cells
  IC50: 1000 to 3000 nM
A549 cells
  IC50: ≥ 3000 nM
K562 cells
  IC50: 1000 to 3000 nM

## O=C(/C=C/c1cccc(/C=C/C(=O)N2CCN(C(=O)c3ccccc3)CC2)n1)NO [Example 16, (E)-3-{6-[(E)-3-(4-Benzoyl-piperazin-1-yl)-3-oxo-propenyl]-pyridin-2-yl}-N-hydroxy-acrylamide hydrochloride]
HCT-116 cells
  IC50: ≥ 3000 nM
A549 cells
  IC50: ≥ 3000 nM
K562 cells
  IC50: ≥ 3000 nM

## O=C(/C=C/c1cccc(/C=C/C(=O)N2CCC(Cc3ccccc3)CC2)n1)NO [Example 17, (E)-3-{6-[(E)-3-(4-Benzyl-piperidin-1-yl)-3-oxo-propenyl]-pyridin-2-yl}-N-hydroxy-acrylamide hydrochloride]
HCT-116 cells
  IC50: 1000 to 3000 nM
A549 cells
  IC50: 1000 to 3000 nM
K562 cells
  IC50: 1000 to 3000 nM

## O=C(/C=C/c1cccc(/C=C/C(=O)N2CCN(c3ccccc3Cl)CC2)n1)NO [Example 18, (E)-3-(6-{(E)-3-[4-(2-Chloro-phenyl)-piperazin-1-yl]-3-oxo-propenyl}-pyridin-2-yl)-N-hydroxy-acrylamide hydrochloride]
HCT-116 cells
  IC50: ≤ 1000 nM
A549 cells
  IC50: 1000 to 3000 nM
K562 cells
  IC50: 1000 to 3000 nM

## O=C(/C=C/c1cccc(/C=C/C(=O)N2CCC(c3ccccc3)CC2)n1)NO [Example 19, (E)-N-Hydroxy-3-{6-[(E)-3-oxo-3-(4-phenyl-piperidin-1-yl)-propenyl]-pyridin-2-yl}-acrylamide hydrochloride]
HCT-116 cells
  IC50: 1000 to 3000 nM
A549 cells
  IC50: 1000 to 3000 nM
K562 cells
  IC50: 1000 to 3000 nM

## O=C(/C=C/c1cccc(/C=C/C(=O)N2CCN(c3ncccn3)CC2)n1)NO [Example 20, (E)-N-Hydroxy-3{-6-[(E)-3-oxo-3-(4-pyrimidin-2-yl-piperazin-1-yl)-propenyl]-pyridin-2-yl}-acrylamide hydrochloride]
HCT-116 cells
  IC50: ≥ 3000 nM
A549 cells
  IC50: ≥ 3000 nM
K562 cells
  IC50: ≥ 3000 nM

## O=C(/C=C/c1cccc(/C=C/C(=O)N2CCN(c3ccc(Cl)cc3)CC2)n1)NO [Example 21, (E)-3-(6-{(E)-3-[4-(4-Chloro-phenyl)-piperazin-1-yl]-3-oxo-propenyl}-pyridin-2-yl)-N-hydroxy-acrylamide hydrochloride]
HCT-116 cells
  IC50: ≤ 1000 nM
A549 cells
  IC50: ≤ 1000 nM
K562 cells
  IC50: ≤ 1000 nM

## O=C(/C=C/c1cccc(/C=C/C(=O)N2CCN(Cc3ccccc3)CC2)n1)NO [Example 22, (E)-3-{6-[(E)-3-(4-Benzyl-piperazin-1-yl)-3-oxo-propenyl]-pyridin-2-yl}-N-hydroxy-acrylamide hydrochloride]
HCT-116 cells
  IC50: 1000 to 3000 nM
A549 cells
  IC50: ≥ 3000 nM
K562 cells
  IC50: 1000 to 3000 nM

## O=C(/C=C/c1cccc(/C=C/C(=O)N2CCN(CCc3ccccc3)CC2)n1)NO [Example 23, (E)-N-Hydroxy-3-{6-[(E)-3-oxo-3-(4-phenethyl-piperazin-1-yl)-propenyl]-pyridin-2-yl}-acrylamide hydrochloride]
HCT-116 cells
  IC50: 1000 to 3000 nM
A549 cells
  IC50: ≥ 3000 nM
K562 cells
  IC50: 1000 to 3000 nM

## O=C(/C=C/c1cccc(/C=C/C(=O)N2CCC(C(=O)c3ccccc3)CC2)n1)NO [Example 24, (E)-3-{6-[(E)-3-(4-Benzoyl-piperidin-1-yl)-3-oxo-propenyl]-pyridin-2-yl}-N-hydroxy-acrylamide hydrochloride]
HCT-116 cells
  IC50: 1000 to 3000 nM
A549 cells
  IC50: ≥ 3000 nM
K562 cells
  IC50: 1000 to 3000 nM

## O=C(/C=C/c1cccc(/C=C/C(=O)N2CC=C(c3ccccc3)CC2)n1)NO [Example 26, (E)-N-Hydroxy-3-{6-[(E)-3-oxo-3-(4-phenyl-3,6-dihydro-2H-pyridin-1-yl)-propenyl]-pyridin-2-yl}-acrylamide hydrochloride]
HCT-116 cells
  IC50: ≤ 1000 nM
A549 cells
  IC50: 1000 to 3000 nM
K562 cells
  IC50: 1000 to 3000 nM

## Cc1cccc(C)c1C1CCN(C(=O)/C=C/c2cccc(/C=C/C(=O)NO)n2)CC1 [Example 27, (E)-3-(6-{(E)-3-[4-(2,6-Dimethyl-phenyl)-piperidin-1-yl]-3-oxo-propenyl}-pyridin-2-yl)-N-hydroxy-acrylamide hydrochloride]
HCT-116 cells
  IC50: 1000 to 3000 nM
A549 cells
  IC50: 1000 to 3000 nM
K562 cells
  IC50: 1000 to 3000 nM

## N#CC1(c2ccccc2)CCN(C(=O)/C=C/c2cccc(/C=C/C(=O)NO)n2)CC1 [Example 28, (E)-3-{6-[(E)-3-(4-Cyano-4-phenyl-piperidin-1-yl)-3-oxo-propenyl]-pyridin-2-yl}-N-hydroxy-acrylamide hydrochloride]
HCT-116 cells
  IC50: 1000 to 3000 nM
A549 cells
  IC50: ≥ 3000 nM
K562 cells
  IC50: 1000 to 3000 nM

## O=C(/C=C/c1cccc(/C=C/C(=O)N2CCN(c3ccccn3)CC2)n1)NO [Example 29, (E)-N-Hydroxy-3-{6-[(E)-3-oxo-3-(4-pyridin-2-yl-piperazin-1-yl)-propenyl]-pyridin-2-yl}-acrylamide hydrochloride]
HCT-116 cells
  IC50: ≥ 3000 nM
A549 cells
  IC50: ≥ 3000 nM
K562 cells
  IC50: ≥ 3000 nM

## Cc1cccc(C)c1N1CCN(C(=O)/C=C/c2cccc(/C=C/C(=O)NO)n2)CC1 [Example 31, (E)-3-(6-{(E)-3-[4-(2,6-Dimethyl-phenyl)-piperazin-1-yl]-3-oxo-propenyl}-pyridin-2-yl)-N-hydroxy-acrylamide hydrochloride]
HCT-116 cells
  IC50: 1000 to 3000 nM
A549 cells
  IC50: ≥ 3000 nM
K562 cells
  IC50: 1000 to 3000 nM

## O=C(/C=C/c1cccc(/C=C/C(=O)N2CCC3(CC2)C(=O)NCN3c2ccccc2)n1)NO [Example 32, (E)-N-Hydroxy-3-{6-[(E)-3-oxo-3-(4-oxo-1-phenyl-1,3,8-triaza-spiro[4.5]dec-8-yl)-propenyl]-pyridin-2-yl}-acrylamide hydrochloride]
HCT-116 cells
  IC50: ≥ 3000 nM
A549 cells
  IC50: ≥ 3000 nM
K562 cells
  IC50: ≥ 3000 nM

## COc1ccc(N2CCN(C(=O)/C=C/c3cccc(/C=C/C(=O)NO)n3)CC2)cc1 [Example 34, (E)-N-Hydroxy-3-(6-{(E)-3-[4-(4-methoxy-phenyl)-piperazin-1-yl]-3-oxo-propenyl}-pyridin-2-yl)-acrylamide hydrochloride]
HCT-116 cells
  IC50: ≤ 1000 nM
A549 cells
  IC50: 1000 to 3000 nM
K562 cells
  IC50: 1000 to 3000 nM

## O=C(/C=C/c1cccc(/C=C/C(=O)N2CCN(c3ccc(C(F)(F)F)cc3)CC2)n1)NO [Example 35, (E)-N-Hydroxy-3-(6-{(E)-3-oxo-3-[4-(4-trifluoromethyl-phenyl)-piperazin-1-yl]-propenyl}-pyridin-2-yl)-acrylamide hydrochloride]
HCT-116 cells
  IC50: ≤ 1000 nM
A549 cells
  IC50: ≤ 1000 nM
K562 cells
  IC50: 1000 to 3000 nM

## N#Cc1ccc(N2CCN(C(=O)/C=C/c3cccc(/C=C/C(=O)NO)n3)CC2)cc1 [Example 36, (E)-3-(6-{(E)-3-[4-(4-Cyano-phenyl)-piperazin-1-yl]-3-oxo-propenyl}-pyridin-2-yl)-N-hydroxy-acrylamide hydrochloride]
HCT-116 cells
  IC50: ≥ 3000 nM
A549 cells
  IC50: ≥ 3000 nM
K562 cells
  IC50: ≥ 3000 nM

## O=C(/C=C/c1cccc(/C=C/C(=O)N2CCN(c3ccc(F)cc3)CC2)n1)NO [Example 37, (E)-3-(6-{(E)-3-[4-(4-Fluoro-phenyl)-piperazin-1-yl]-3-oxo-propenyl}-pyridin-2-yl)-N-hydroxy-acrylamide hydrochloride]
HCT-116 cells
  IC50: ≤ 1000 nM
A549 cells
  IC50: 1000 to 3000 nM
K562 cells
  IC50: 1000 to 3000 nM

## O=C(/C=C/c1cccc(/C=C/C(=O)N2CCN(c3ccc(Br)cc3)CC2)n1)NO [Example 38, (E)-3-(6-{(E)-3-[4-(4-Bromo-phenyl)-piperazin-1-yl]-3-oxo-propenyl}-pyridin-2-yl)-N-hydroxy-acrylamide hydrochloride]
HCT-116 cells
  IC50: ≤ 1000 nM
A549 cells
  IC50: ≤ 1000 nM
K562 cells
  IC50: ≤ 1000 nM

## O=C(/C=C/c1cccc(/C=C/C(=O)N2CCN(c3ccc(OCc4ccccc4)cc3)CC2)n1)NO [Example 39, (E)-3-(6-{(E)-3-[4-(4-Benzyloxy-phenyl)-piperazin-1-yl]-3-oxo-propenyl}-pyridin-2-yl)-N-hydroxy-acrylamide hydrochloride]
HCT-116 cells
  IC50: 1000 to 3000 nM
A549 cells
  IC50: ≥ 3000 nM
K562 cells
  IC50: 1000 to 3000 nM
